# From EP2069533B1, “GENE […] FOR IDENTIFICATION, MONITORING AND TREATMENT OF MULTIPLE SCLEROSIS” (Life Technologies Corporation, priority 2006, dated 2008)
# Test system: IL1B
# Test: Whole blood response to E. coli filtrate with or without polymyxin B
# Assay type: cell-based, human
# Conditions: polymyxin B added to E. coli filtrate
# Description: Figs. 27 through 41 illustrate the use of gene expression panels in early identification and monitoring of infectious disease. These figures plot the response, in expression products of the genes indicated, in whole blood, to the administration of various infectious agents or products associated with infectious agents. In each figure, the gene expression levels are "calibrated", as that term is defined herein, in relation to baseline expression levels determined with respect to the whole blood prior to administration of the relevant infectious agent. In this respect the figures are similar in nature to various figures of our below-referenced patent application WO 01/25473 (for example, Fig. 15 therein). The concentration change is shown ratiometrically, and the baseline level of 1 for a particular gene locus corresponds to an expression level for such locus that is the same, monitored at the relevant time after addition of the infectious agent or other stimulus, as the expression level before addition of the stimulus. Ratiometric changes in concentration are plotted on a logarithmic scale. Bars below the unity line represent decreases in concentration and bars above the unity line represent increases in concentration, the magnitude of each bar indicating the magnitude of the ratio of the change. […]
# The responses were monitored at 2, 6, and 24 hours after administration. […]
substance,measurement,value
polymyxin B,response of IL1B to E. coli filtrate,did not affect the response
